Values joined by “and” are separate entries in the source; they are usually repeats but may differ in a detail not shown here. Equal entries are not always repeated. Where two headings read alike, the source gives them in different places.
Legend:
[1] = cited from earlier work
[2] = Single oral dose, randomized, crossover PK-DDI study of voriconazole with clarithromycin; plasma voriconazole by RP HPLC UV-Vis, non-compartmental analysis; type: in vivo, human; details: for Cmaax of voriconazole, Mean & std. Deviation / Erate (elimination rate) of voriconazole, Mean & std. Deviation / tmax (time to reach Cmax) of voriconazole, Mean & std. Deviation: single oral dose; for concentration at 0.5 h / concentration at 1 h / concentration at 1.5 h / concentration at 2 h / concentration at 3 h / concentration at 4 h / concentration at 6 h / concentration at 8 h / concentration at 24 h: male, oral, Voriconazole plasma concentration
Procedure: The study designed was a single oral dose, open-labeled, randomized, crossover, and consisted of 02 weeks of washouts in between for evaluating drug-drug interaction in healthy volunteers.
A 2-week washout period was allocated from day 2 to day 15 to avoid the carry-over effect. […] All volunteers took the medication with a glass of water (250 mL). On days 1 and 16 (treatment days), two and 6 hours after drug administration, standard breakfast and lunch were served to all volunteers, respectively.
After taking blood samples, immediately these samples were centrifuged (at 500 rpm for 10–15 min) to separate plasma from blood (RBC) and stored at −80°C till analysis.
The plasma samples were subjected to protein precipitation and drug extraction with acetonitrile (ACN). A fixed volume of plasma (200 μL), ACN (200 μL), and internal standard (i.e., 2 μg/mL of fluconazole), taken into Eppendorf tubes were vortexed (for 5 min) and kept in the centrifuge at 10,000 RPM for 10–15 min for protein separation. Their supernatant (organic layer) layer was cautiously separated and analyzed by the already developed method. Chromatographic conditions of the HPLC-UV method comprised of isocratic mobile-phase ACN: H2O in 60:40 v/v proportions at a flow rate of 1.5 mL/min and UV detection at 254 nm. Then each sample was analyzed at least three times using the Flexar-series HPLC system, Norwalk, USA, by utilizing a C-18 Perkin-Elmer® column (with particulars of 150 mm length, 4.6 mm inner diameter, and 5 μm particle size). The total run time for each sample was ≤7.0 min.
The pharmacokinetic (PK) parameters used for PK-DDI assessment and plasma drug concentration vs. time profile were analyzed statistically through a non-compartmental approach.Pharmacokinetics PK-Summit® (version 2.0.2; Summit Research Services, Ashland, OH) software was used to evaluate all pharmacokinetic parameters. The various non-compartmental pharmacokinetic (PK) parameters calculated were peak plasma concentration (Cmax, µg/mL), time to reach Cmax (tmax, h), the elimination half-life (E-t1/2, h), an area under the curve from time zero to infinity (AUC^0-∞, μg×h/mL), and the area under the concentration-time curve from time zero to time-t (AUC^0-t, μg×h/mL), mean residence time (MRT, h), elimination rate (Erate, 1/h), apparent clearance (CL/Kg, L/h/Kg) and apparent volume of distribution (Vd, L/Kg).
Descriptive statistical tests were performed using SPSS software (version 21.0; IBM Crop; SPSS®; 2012); for a non-compartmental approach Pharmacokinetics PK-Summit® (version 2.0.2; Summit Research Services, Ashland, OH) software and MS-Excel used for results evaluation, and such data were presented graphically. […] The SPSS software (version 21.0; IBM Crop; SPSS®; 2012) procedure MIXED was used with treatment and visits as a fixed effect and subject as a random effect using the Residual maximum likelihood REML method. Sharpiro-Wilk test was used to check the normality of PK parameters. Log transformation was applied to those PK parameters (such as Cmax, MRT, apparent Vd, and E-t1/2) which were not normally distributed. […] These differences were evaluated by the ratios of geometric means between treatments and used a 90% CI for these ratios.

[3] = ref Geist et al., 2013; cited from earlier work
CYP3A4 = tested on: CYP3A4; design: method as in Mikus et al., 2006; details: read-out: Michaelis-Menten constant (Km) of voriconazole oxidase activity; CYP3A4 expressed in human CYP enzyme; ref Mikus et al., 2006; cited from earlier work
[4] = ref Geist et al., 2013; Hohmann et al., 2016; cited from earlier work
clinical = details: human, in vivo
From the text: After the second sequence of drug administration, follow-up data were collected for 2 weeks (from day 16 to day 30) from all volunteers regarding any side effects or toxicity-related issues. […] Blurring vision has been reported as a major side effect in the literature ([Theuretzbacher et al., 2006]). […] In the follow-up period, we carefully monitored the aspartate aminotransferase (AST) and alanine transaminase (ALT) biochemical test reports of that volunteer.

[5] = increased, exact percentage not reported, ref Yasu et al. (2016)
[6] = increased, exact percentage not reported, ref Bouatou et al. (2014)
[7] = Voriz (Alone): voriconazole 200 mg × 2 tablets, n = 12
[8] = Voriz + CLRM: voriconazole 200 mg × 2 tablets + clarithromycin 500 mg tablet, n = 12
[9] = human, plasma, 400 mg, Series 1: voriconazole 400 mg alone
[10] = human, plasma, Series 2: voriconazole 400 mg along with clarithromycin 500 mg
[11] = with clarithromycin versus alone, stated as decrease
[12] = ref Kakuda et al., (2013), Calcagno et al., (2014)
[13] = increased, exact percentage not reported, ref Motta et al. (2016)
[14] = increased, exact percentage not reported, ref Heinz et al. (2007)

CN/C(=N/CCSCc1nc[nH]c1C)NC#N [Cimetidine]
↑AUC of voriconazole (increase by effector drug) ([1]; ref Purkins et al. (2003b)): *↑22.5%
↑Cmax of voriconazole (increase by effector drug) ([1]; ref Purkins et al. (2003b)): *↑18.5%

CC[C@H]1OC(=O)[C@H](C)[C@@H](O[C@H]2C[C@@](C)(OC)[C@@H](O)[C@H](C)O2)[C@H](C)[C@@H](O[C@@H]2O[C@H](C)C[C@H](N(C)C)[C@H]2O)[C@](C)(O)C[C@@H](C)C(=O)[C@H](C)[C@@H](O)[C@]1(C)O [Erythromycin]
↑AUC of voriconazole (increase by effector drug) ([1]; ref Purkins et al. (2003d)): *↑1%
↑Cmax of voriconazole (increase by effector drug) ([1]; ref Purkins et al. (2003d)): *↑8%

COc1ccc2[nH]c([S+]([O-])Cc3ncc(C)c(OC)c3C)nc2c1 (stereo not shown) [Omeprazole]
↑AUC of voriconazole (increase by effector drug) ([1]; ref Wood et al. (2003)): *↑41%
↑Cmax of voriconazole (increase by effector drug) ([1]; ref Wood et al. (2003)): *↑15%

Cc1c(OCC(F)(F)F)ccnc1C[S+]([O-])c1nc2ccccc2[nH]1 (stereo not shown) [Lanoprazole]
↑AUC of voriconazole (increase by effector drug) [1, 5]: ↑ ^NR*
↑Cmax of voriconazole (increase by effector drug) [1, 5]: ↑ ^NR*

COc1ccc2nc([S@@+]([O-])Cc3ncc(C)c(OC)c3C)[nH]c2c1 [Esomeprazole]
↑AUC of voriconazole (increase by effector drug) [1, 6]: ↑ ^NR*
↑Cmax of voriconazole (increase by effector drug) [1, 6]: ↑ ^NR*

C[C@@H](c1ncncc1F)[C@](O)(Cn1cncn1)c1ccc(F)cc1F [voriconazole, (2R, 3S) -2-(2,4-difluorophenyl) -3-(5-fluora-4pyrimidinyl) -1-(1H −1,2,4-trizole-1-yl) -2-butanol]
Cmaax of voriconazole, Mean & std. Deviation ([2]; Voriz (Alone): voriconazole 200 mg × 2 tablets, fasted healthy male volunteers n = 12): 2.52 ± 0.21 µg/mL
Erate (elimination rate) of voriconazole, Mean & std. Deviation [2, 7]: 0.09 h⁻¹ and 0.09 ± 0.02 h⁻¹
tmax (time to reach Cmax) of voriconazole, Mean & std. Deviation [2, 7]: 2.00 ± 0 h and 2 h
AUC0-t of voriconazole, % difference ([2]; Voriz + CLRM vs Voriz (Alone)): 16%
Apparent Vd/kg of voriconazole, % difference ([2]; Voriz + CLRM vs Voriz (Alone)): −23%
Cmaax of voriconazole, % difference ([2]; Voriz + CLRM vs Voriz (Alone)): 52%
MRT of voriconazole, % difference ([2]; Voriz + CLRM vs Voriz (Alone)): −10%
tmax of voriconazole, % difference ([2]; Voriz + CLRM vs Voriz (Alone)): −25%
Cmaax of voriconazole, Mean & std. Deviation [2, 8]: 3.84 ± 0.562 µg/mL
Erate (elimination rate) of voriconazole, Mean & std. Deviation [2, 8]: 0.11 h⁻¹ and 0.11 ± 0.02 h⁻¹
tmax (time to reach Cmax) of voriconazole, Mean & std. Deviation [2, 8]: 1.50 ± 0 h and 1.5 h
AUC(0-inf) ([2]; human, plasma, po, 400 mg): 9090 ± 790 ng·h/mL
AUC(0-t) ([2]; human, plasma, po, 400 mg): 8600 ± 720 ng·h/mL
MRT ([2]; human, plasma, po, 400 mg): 6.16 ± 0.95 h
half-life ([2]; human, plasma, po, 400 mg): 7.94 ± 0.53 h
concentration at 0.5 h [2, 9]: 225 ng/mL
concentration at 1 h [2, 9]: 1020 ng/mL
concentration at 1.5 h [2, 9]: 1890 ng/mL
concentration at 2 h [2, 9]: 2520 ng/mL
concentration at 3 h [2, 9]: 1320 ng/mL
concentration at 4 h [2, 9]: 781 ng/mL
concentration at 6 h [2, 9]: 401 ng/mL
concentration at 8 h [2, 9]: 170 ng/mL
concentration at 24 h [2, 9]: 39.1 ng/mL
concentration at 0.5 h [2, 10]: 378 ng/mL
concentration at 1 h [2, 10]: 2040 ng/mL
concentration at 1.5 h [2, 10]: 3840 ng/mL
concentration at 2 h [2, 10]: 2500 ng/mL
concentration at 3 h [2, 10]: 995 ng/mL
concentration at 4 h [2, 10]: 661 ng/mL
concentration at 6 h [2, 10]: 433 ng/mL
concentration at 8 h [2, 10]: 224 ng/mL
concentration at 24 h [2, 10]: 41.8 ng/mL
decrease in tmax of voriconazole [2, 11]: 25%
decrease of E-t1/2 of voriconazole [2, 11]: 26%
decrease of MRT of voriconazole [2, 11]: 10%
reduction (decrease) in the apparent volume of distribution (Vd) of voriconazole [2, 11]: 23%
protein binding [3]: 58%
Km (CYP3A4): 235 µM
oral bioavailability (B.A) [4]: 96%
Side effect: blurred vision (clinical): Blurred vision was observed in two volunteers
Side effect: dizziness (clinical): One of our volunteers had felt dizziness
Cmax (clinical; male): 5000 ng/mL
Duration of blurred vision (clinical; male): 10 to 15 min

Cc1cc(C#N)cc(C)c1Oc1nc(Nc2ccc(C#N)cc2)nc(N)c1Br [Etravirine]
↑AUC of voriconazole (increase by effector drug) [1, 12]: *↑14%
↑Cmax of voriconazole (increase by effector drug) [1, 12]: *↑23%

CC[C@H]1OC(=O)[C@H](C)[C@@H](O[C@H]2C[C@@](C)(OC)[C@@H](O)[C@H](C)O2)[C@H](C)[C@@H](O[C@@H]2O[C@H](C)C[C@H](N(C)C)[C@H]2O)[C@](C)(O)C[C@@H](C)CN(C)[C@H](C)[C@@H](O)[C@]1(C)O [Azithromycin]
↑AUC of voriconazole (increase by effector drug) ([1]; ref Purkins et al. (2003d)): *↑8%
↑Cmax of voriconazole (increase by effector drug) ([1]; ref Purkins et al. (2003d)): *↑18%

CNC(=C[N+](=O)[O-])NCCSCc1ccc(CN(C)C)o1 [Ranitidine]
↑AUC of voriconazole (increase by effector drug) ([1]; ref Purkins et al. (2003b)): *↑4%
↑Cmax of voriconazole (increase by effector drug) ([1]; ref Purkins et al. (2003b)): *↑3.5%

O=C(CCCN1CCC(O)(c2ccc(Cl)cc2)CC1)c1ccc(F)cc1 [Haloperidol]
↑AUC of voriconazole (increase by effector drug) [1, 13]: ↑ ^NR*
↑Cmax of voriconazole (increase by effector drug) [1, 13]: ↑ ^NR*

COc1ccnc(C[S+]([O-])c2nc3ccc(OC(F)F)cc3[nH]2)c1OC (stereo not shown) [Pantoprazole]
↑AUC of voriconazole (increase by effector drug) [1, 14]: ↑ ^NR*
↑Cmax of voriconazole (increase by effector drug) [1, 14]: ↑ ^NR*

— PMC10288581 (Frontiers in Pharmacology, 2023)
